74 compounds from patent US11701364B2, “Agonists of stimulator of interferon genes sting” (The Scripps Research Institute, priority 2018, dated 2023) can be followed below.

This assay deals with T1, STING (Stimulator of Interferon Genes) (Homo sapiens, UniProt Q86WV6, G230A/H232R/R293Q/R71H).
T1 construct: host or cells: THP-1-Lucia ISG cells (human monocytic line)
As to the kind of experiment: ISG-LUC activation assay (ISRE-Luciferase assay in THP-1 Lucia ISG reporter cells). The format is cell-based. Particulars: THP-1 Lucia ISG cells, 24 hours, luciferase reporter; read-out: ISG-LUC activation assay (EC50). The text has this: This has been established using a primary assay involving a human THP-1 cell line carrying an IRF-inducible reporter with 5 copies of the IFN signaling response element. Counter screens, involving alternative reporter constructs, rodent cell-based assays, as well as cGAS and STING knock-out cell lines, are used to eliminate luciferase artifacts and ensure human-rodent cross species reactivity, as well as pathway selectivity. Biochemical assays, involving cGAS enzymatic activity and STING protein binding assays, are used to identify the specific target of identified hits.
THP-1 Lucia ISG cells were resuspended in low-serum growth media (2% FBS) at a density of 5×10^5 cells/ml and treated with test article or vehicle (DMSO). 50 μL of cells were seeded into each well of a 384-well white greiner plates and incubated for 24 hours. To evaluate expression of the luciferase reporter, 30 μl of Quanti-luc (Invivogen) detection reagent was added to each well and luminescence was read using an Envision plate reader (Perkin Elmer) set with an integration time of 0.1 seconds.

T1 sequence (Q86WV6 whole entry R71H/G230A/H232R/R293Q): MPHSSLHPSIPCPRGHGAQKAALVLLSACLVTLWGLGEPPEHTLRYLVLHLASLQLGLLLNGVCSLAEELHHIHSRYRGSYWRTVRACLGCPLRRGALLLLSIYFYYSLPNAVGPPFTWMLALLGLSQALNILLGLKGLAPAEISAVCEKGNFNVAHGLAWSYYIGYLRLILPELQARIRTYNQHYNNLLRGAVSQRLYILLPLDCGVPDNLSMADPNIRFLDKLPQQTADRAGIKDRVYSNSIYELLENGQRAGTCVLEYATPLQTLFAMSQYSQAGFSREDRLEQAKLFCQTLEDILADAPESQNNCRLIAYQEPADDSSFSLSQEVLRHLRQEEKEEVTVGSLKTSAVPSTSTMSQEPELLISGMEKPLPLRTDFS

In the case of `COC(=O)c1cc(C(C)C)ccc1NC(=O)c1ccc(-n2ccnc2)nn1` [Compound 160], the concentration for a half-maximal effect (EC50) (commonly the concentration giving half of the maximal effect) is 3840 nM.
Then `Cc1cc2c(=O)oc(-c3ccc(-n4ccnc4)nn3)nc2cc1F` [Compound 33], with less than 19.5 nM; and `COc1ccc(C(=O)O)c(NC(=O)c2ccc(-n3ccnc3)nn2)c1` [Compound 62], with 1460 nM; and `O=c1oc(-c2ccc(-n3ccnc3)nn2)nc2cc3c(cc12)OC(F)(F)O3` [Compound 141], with more than 50000 nM.
Then `COc1ccc2nc(-c3ccc(-n4ccnc4)nn3)oc(=O)c2c1` [Compound 40], with 684 nM; and `O=C(Nc1ccc(C(F)(F)F)cc1C(=O)O)c1ccc(-n2ccnc2)nn1` [Compound 90], with more than 20000 nM; and `CCOC(=O)c1cc2c(nc1NC(=O)c1ccc(-n3ccnc3)nn1)CCN(C)C2` [Compound 116], with 3460 nM.
With `COCC(=O)c1nc(Cl)ncc1NC(=O)c1ccc(-n2ccnc2)nn1` [Compound 75] the figure was 1260 nM.
In the case of `O=c1oc(-c2ccc(-n3ccnc3)nn2)nc2ccc(OC(F)(F)F)cc12` [Compound 41], the 50% effective concentration (EC50) came to 176 nM.
Then `COC(=O)c1ccc(C)cc1NC(=O)c1ccc(-n2ccnc2)nn1` [Compound 15], with 294 nM.
With `COC(=O)c1ccccc1NC(=O)c1ccc(-n2cnc(C#N)c2)nn1` [Compound 92], the EC50 is approximately 5260 nM.
As for `O=C(O)C1=C(NC(=O)c2ccc(-n3ccnc3)nn2)CCCC1` [Compound 130], the EC50 stood at 14800 nM.
Then `COC(=O)c1ccc(F)c(C)c1NC(=O)c1ccc(-n2ccnc2)nn1` [Compound 2], with 4690 nM; and `COC(=O)C1=C(NC(=O)c2ccc(-n3ccnc3)nn2)CC(C)(C)OC1` [Compound 136], with 8840 nM.
With `CCOC(=O)c1nc2ccccc2cc1NC(=O)c1ccc(-n2ccnc2)nn1` [Compound 153] the figure was 43 nM.
Then `COC(=O)c1cc(Cl)c(Br)c(F)c1NC(=O)c1ccc(-n2ccnc2)nn1` [Compound 60], with 62.2 nM.
As for `COC(=O)c1ccc(C2CC2)cc1NC(=O)c1ccc(-n2ccnc2)nn1` [Compound 31], the EC50 stood at 206 nM.
On to `COC(=O)c1cc(C)c(F)cc1NC(=O)c1ccc(-n2ccnc2)nn1` [Compound 50], for which the EC50 was 145 nM.
For `CN(O)C(=O)c1cc(F)c(F)cc1NC(=O)c1ccc(-n2ccnc2)nn1` [Compound 147], the concentration for a half-maximal effect (EC50) is 5250 nM.
Then `COC(=O)c1ccc(C#N)cc1NC(=O)c1ccc(-n2ccnc2)nn1` [Compound 12], with 159 nM; and `CCOC(=O)c1cc[nH]c1NC(=O)c1ccc(-n2ccnc2)nn1` [Compound 110], with 16900 nM; and `O=C(Nc1ccc(Cl)cc1C(=O)O)c1ccc(-n2ccnc2)nn1` [Compound 83], with more than 20000 nM.
For `O=C(Nc1cc(F)c(OC(F)(F)F)cc1C(=O)O)c1ccc(-n2ccnc2)nn1` [Compound 146], the EC50 amounted to 2180 nM.
With `Cc1cc(NC(=O)c2ccc(-n3ccnc3)nn2)c(C(=O)O)cc1C` [Compound 111] the figure was 7250 nM; with `COC(=O)c1cc(F)c(Br)cc1NC(=O)c1ccc(-n2ccnc2)nn1` [Compound 58], 60.6 nM; with `CCOC(=O)c1c(F)ccc(F)c1NC(=O)c1ccc(-n2ccnc2)nn1` [Compound 143], 9710 nM.
With `O=C(Nc1ccc(F)cc1C(=O)O)c1ccc(-n2ccnc2)nn1` [Compound 158] the figure was more than 20000 nM; with `O=C(Nc1cc(C(F)(F)F)ccc1C(=O)O)c1ccc(-n2ccnc2)nn1` [Compound 86], 10300 nM.
Then `CC(C)OC(=O)c1ccccc1NC(=O)c1ccc(-n2ccnc2)nn1` [Compound 95], with 1700 nM.
Take `O=C(Nc1cc2ccccc2cc1C(=O)O)c1ccc(-n2ccnc2)nn1` [Compound 78]: the 50% effective concentration (EC50) is 4440 nM.
With `COC(=O)c1cc(C2CC2)ccc1NC(=O)c1ccc(-n2ccnc2)nn1` [Compound 32] the figure was 359 nM; with `COC(=O)c1nc(C2CC2)c(F)cc1NC(=O)c1ccc(-n2ccnc2)nn1` [Compound 145], 1580 nM; with `COC(=O)c1cc(OC)ccc1NC(=O)c1ccc(-n2ccnc2)nn1` [Compound 14], 288 nM.
Then `COC(=O)c1ccc(C)c(C)c1NC(=O)c1ccc(-n2ccnc2)nn1` [Compound 6], with approximately 2760 nM.
Then `COC(=O)c1cc(F)c(OC)cc1NC(=O)c1ccc(-n2ccnc2)nn1` [Compound 52], with 74.4 nM; and `Cc1ccc(NC(=O)c2ccc(-n3ccnc3)nn2)c(C(=O)O)c1` [Compound 89], with more than 20000 nM; and `Cc1ccc(NC(=O)c2ccc(-n3ccnc3)nn2)c(C(O)(C(F)(F)F)C(F)(F)F)c1` [Compound 115], with 7360 nM.
As for `O=C(Nc1cc(F)c(C(F)(F)F)cc1C(=O)O)c1ccc(-n2ccnc2)nn1` [Compound 80], the EC50 turned out to be 3970 nM.
Take `CCOC(=O)c1c(F)cc(F)c(F)c1NC(=O)c1ccc(-n2ccnc2)nn1` [Compound 148]: the concentration for a half-maximal effect (EC50) was found to be 3680 nM.
Then `COC(=O)c1cc(Cl)c(C)nc1NC(=O)c1ccc(-n2ccnc2)nn1` [Compound 47], with 282 nM.
For the compound `COC(=O)c1cc(OC(F)(F)F)c(F)cc1NC(=O)c1ccc(-n2ccnc2)nn1` [Compound 44], the EC50 amounted to 573 nM.
Then `O=C(Nc1ccccc1-c1noc(O)n1)c1ccc(-n2ccnc2)nn1` [Compound 118], with 3970 nM; and `Cc1cc(C(=O)O)c(NC(=O)c2ccc(-n3ccnc3)nn2)cc1F` [Compound 172], with 1010 nM.
Then `O=C(Nc1cc(F)c(Br)nc1C(=O)O)c1ccc(-n2ccnc2)nn1` [Compound 177], with more than 20000 nM.
With `CC(C)OC(=O)c1cc(F)ccc1NC(=O)c1ccc(-n2ccnc2)nn1` [Compound 25] the figure was 805 nM.
On to `COC(=O)c1ncccc1NC(=O)c1ccc(-n2ccnc2)nn1` [Compound 5], for which the EC50 is 1240 nM.
As to `NC(=O)c1cc(F)c(F)cc1NC(=O)c1ccc(-n2ccnc2)nn1` [Compound 63], the EC50 came to 2640 nM.
Then `COC(=O)c1cc(Cl)c(Cl)cc1NC(=O)c1ccc(-n2ccnc2)nn1` [Compound 34], with 72.6 nM; and `COC(=O)c1cc2cnn(C)c2cc1NC(=O)c1ccc(-n2ccnc2)nn1` [Compound 45], with 126 nM.
Then `COC(=O)c1c(Cl)cc(F)cc1NC(=O)c1ccc(-n2ccnc2)nn1` [Compound 100], with 10200 nM.
With `O=c1oc(-c2ccc(-n3ccnc3)nn2)nc2c1COCC2` [Compound 168] the figure was 11300 nM; with `CCOC(=O)C1=C(NC(=O)c2ccc(-n3ccnc3)nn2)CCOC1` [Compound 128], 4350 nM.
As to `Cc1c(F)ccc2nc(-c3ccc(-n4ccnc4)nn3)oc(=O)c12` [Compound 133], the EC50 worked out at 4170 nM.
With `COC(=O)c1ccc(F)cc1NC(=O)c1ccc(-n2ccnc2)nn1` [Compound 16] the figure was 684 nM; with `O=C(Nc1cc(F)c(F)cc1C(=O)NC1CCC(O)(C(F)(F)F)CC1)c1ccc(-n2ccnc2)nn1` (centres unmarked) [Compound 88], 5240 nM; with `CCc1ccc(NC(=O)c2ccc(-n3ccnc3)nn2)c(C(=O)OC(C)C)c1` [Compound 65], 1160 nM.
Then `O=c1oc(-c2ccc(-n3ccnc3)nn2)nc2cc(Cl)c(F)cc12` [Compound 36], with 40.3 nM.
Then `COc1ccc(NC(=O)c2ccc(-n3ccnc3)nn2)c(C(=O)O)c1` [Compound 151], with 7760 nM; and `COC(=O)c1ccc(Cl)cc1NC(=O)c1ccc(-n2ccnc2)nn1` [Compound 17], with 312 nM.
With `O=C(Nc1cc(F)ccc1C(=O)O)c1ccc(-n2ccnc2)nn1` [Compound 169], the EC50 worked out at 12600 nM.
For the compound `COC(=O)c1cc(O)ccc1NC(=O)c1ccc(-n2ccnc2)nn1` [Compound 109], the half-maximal effective concentration (EC50) turned out to be 8950 nM.
With `COC(=O)c1ccc(C(F)(F)F)cc1NC(=O)c1ccc(-n2ccnc2)nn1` [Compound 27] the figure was 136 nM; with `COC(=O)c1nc(Br)c(F)cc1NC(=O)c1ccc(-n2ccnc2)nn1` [Compound 43], 142 nM.
With `Cc1ccc(C(=O)O)c(NC(=O)c2ccc(-n3ccnc3)nn2)c1` [Compound 82] the figure was 6390 nM; with `COC(=O)c1cnccc1NC(=O)c1ccc(-n2ccnc2)nn1` [Compound 108], 3350 nM.
Then `COC(=O)c1c(F)cc(F)cc1NC(=O)c1ccc(-n2ccnc2)nn1` [Compound 51], with 198 nM.
With `Cc1noc(-c2ccccc2NC(=O)c2ccc(-n3ccnc3)nn2)n1` [Compound 7], the concentration for a half-maximal effect (EC50) is more than 50000 nM.
On to `O=C(Nc1ccc(F)c(F)c1C(=O)O)c1ccc(-n2ccnc2)nn1` [Compound 173], for which the EC50 is more than 20000 nM.
With `COC(=O)c1cc(OC(F)(F)F)ccc1NC(=O)c1ccc(-n2ccnc2)nn1` [Compound 76] the figure was 573 nM; with `COC(=O)c1cc(C)c(Cl)cc1NC(=O)c1ccc(-n2ccnc2)nn1` [Compound 61], 124 nM.
With `COC(=O)c1ccccc1NC(=O)c1ccc(-n2ccnc2)nn1` [Compound 162] the figure was 956 nM.
Take `COC(=O)c1cc(Cl)ccc1NC(=O)c1ccc(-n2ccnc2)nn1` [Compound 106]: the 50% effective concentration (EC50) is 346 nM.
Then `COC(=O)c1c(F)c(F)c(F)c(F)c1NC(=O)c1ccc(-n2ccnc2)nn1` [Compound 176], with approximately 2480 nM; and `COC(=O)c1cc(C)ccc1NC(=O)c1ccc(-n2ccnc2)nn1` [Compound 104], with 426 nM.
